Results: US8158606B2, “β-L-2′-deoxynucleosides for the treatment of resistant HBV strains and combination therapies” (priority 2002, dated 2012)
In brackets after ≈: the same amount, converted by molar mass. Several values for one entry are separate records, joined by “and”; a condition that tells them apart may be missing. Equal entries are not always repeated. Structures can show the parent of a compound that is named as a salt. Where two headings read alike, the source gives them in different places.

Columns and labels:
[1] = Log P study, octanol-1 / phosphate buffer; settings: for log P (octanol/water): octanol-1 / 0.02 M phosphate buffer pH 7.2; for P (B/A): octanol-1 (B) / 0.02 M phosphate buffer pH 7.2 (A), Study 1 and Study 2
Procedure: To 1 mL of this solution, 1 mL of octanol-1 (B) saturated with 0.02 M phosphate buffer solution (A) was added. The resultant mixture was shaken and centrifuged; three samples from each phase was collected and analyzed by HPLC, as shown in Table 10.
The solution was then saturated with octanol-1 (B). To 1 mL of this solution, 1 mL of octanol-1 (B) saturated with 0.02 M phosphate buffer solution (A) was added. The resultant mixture was shaken and centrifuged; three samples from each phase was collected and analyzed by HPLC, as shown in Table 11.

[2] = test system: cytosolic extracts of HepG2 cells; assay: Steady state phosphorylation kinetics in cytosolic extracts; assay type: biochemical, human; settings: cytosolic extracts of HepG2 cells as enzyme source
[3] = test system: L515M/M552I mutant HBV, cell line MI4; assay: Antiviral testing in stable HepG2 cell lines, EPA of intracellular nucleocapsids; assay type: cell-based, hepatitis B virus
Procedure: (§1) Recombinant DNA constructs corresponding to these lamivudine-resistant mutants were created by site directed mutagenesis. The test system comprised stable cell lines harboring each of the transfected mutant genomes, as well as a wild-type control HBV genome. The antiviral activity of LdT (telbivudine) and LdC, together with the control drugs lamivudine and PMEA, was determined against the mutant and wild-type HBV genomes in the respective test cell lines.
(§2) Endogenous Polymerase Assay (EPA) of cell lysate: Cells were grown in 12-well collagen plates to 100% confluency for 3-4 days and cytosolic lysates were prepared in 1 ml of 50 mM Tris-HCl pH 7.4, 150 mM NaCl, 5 mM MgCl2, 0.2% NP-40. EPAs were essentially performed as described (Seifer et al., 1998). […] The immobilized capsids were then washed, endogenous polymerase reactions were initiated in 50 ul reaction volume containing 50 mM Tris-HCl pH7.4, 75 mM NH4Cl, 1 mM EDTA, 20 mM MgCl2, 0.1 mM β-ME, 0.5% NP-40, 100 μM cold dGTP, TTP, dCTP, and 50 nM ^33P-dATP (Perkin Elmer Life Sciences Cat# NEG 612H), and incubated overnight at 37° C. Following digestion with 1 mg/ml of Proteinase K (Roche, Cat#1373196) for 1 h at 37° C., ^33P-labeled HBV DNA was liberated via phenol/chloroform extraction The nucleic acids were finally precipitated with equal volumes 5M NH4-acetate and 2.5 volumes 100% EtOH and separated on a 1% native agarose gel in Tris-borate buffer. Gels were either fixed with 7% TCA, then dried, or blotted onto positively charged nylon membrane (Pall Biodyne Plus Cat#60406) overnight at room temperature via capillary transfer in 0.4 N NaOH. Dried gels/membranes were exposed to a phosphoimager screen (Molecular Dynamics) overnight at room temperature, then scanned (Storm 860, Molecular Dynamics) and quantitated with ImageQuant (Molecular Dynamics) software.
(§3) 12-well Biocoat collagen I plates (Becton Dickinson Cat#35-4500) are seeded with cells at a density of 0.5-1×10^6 cells per well in 2 ml DMEM containing 5% FBS, 2 mM L-glutamine, 100 I.U. penicillin/100 μg/mL streptomycin, and 0.5 mg/mL G-418.
(§4) Drug dilutions are prepared freshly in 100% DMSO as 200× stocks. For each experiment, 4 aliquots of each drug dilution series are stored at −20° C. until used. Once cells reach confluency, drug treatment is initiated by adding 10 μL of drug dilution into 2 ml of fresh DMEM+5% FBS. […] The no-drug control well receives only 10 μl of DMSO. Cells are treated every other day with 2 mL of fresh drug/medium for a total of 8 days. Cell lysates are then collected on day 10 as described below:
(§5) Aspirate media and rinse cell monolayer carefully once with 1 mL of PBS.
(§6) Add 1 ml of lysis buffer (50 mM Tris-HCl pH 7.5/150 mM NaCl/5 mM MgCl2/0.2% NP-40). Store on ice for 30 min to 4 h.
(§7) Harvest lysed cells. Transfer to 1.5 ml microfuge tubes.
(§8) Clarify lysate by spinning for 5 min at RT and 14,000 rpm.
(§9) Transfer clarified lysate to fresh tubes. Snap-freeze on dry-ice and store at −80° C. until ready to continue with endogenous polymerase assays essentially as described above.
(§10) EC50's were generated from the phosphorimager data by curve fitting using Xlfit software.

[4] = test system: L515M/M552V mutant HBV, cell line MV5/B3; assay: as above; assay type: cell-based, hepatitis B virus
Procedure: as §1, §2, §3, §4, §5, §6, §7, §8, §9, §10

[5] = test system: M552I mutant HBV, cell line I2; assay: as above; assay type: cell-based, hepatitis B virus
Procedure: as §1, §2, §3, §4, §5, §6, §7, §8, §9, §10

[6] = test system: M552V mutant HBV, cell line V1/C9; assay: as above; assay type: cell-based, hepatitis B virus; settings: for EC50: cell line V1/C9, mean ± SD of three to four experiments
Procedure: as §1, §2, §3, §4, §5, §6, §7, §8, §9, §10

[7] = test system: wild-type HBV (ayw), cell line WT3/C1; assay: as above; assay type: cell-based, hepatitis B virus; settings: WT (ayw); for EC50: cell line WT3/C1, mean ± SD of three to four experiments
Procedure: as §1, §2, §3, §4, §5, §6, §7, §8, §9, §10

[8] = Solubility study in water (HPLC calibration)
[9] = target: hepatitis B virus deoxyribonucleic acid (DNA) polymerase (Hepatitis B virus genotype D subtype ayw, UniProt P03156); assay: biochemical
[10] = assay type: physicochemical; settings: octanol-1 (B) / MilliQ water pH 6.5 (A′), Study 1 and Study 2, listed as L-dC-5′-valinyl ester hydrochloride
Procedure: (§11) To 1 mL of this solution, 1 mL of octanol-1 (B) saturated with MilliQ water (A′) was added.
as §11

[11] = Stability study in buffer at pH 7.4, 7.20, 4.5 and 1.2; assay type: physicochemical; settings: pH 1.2, no decomposition products detected for up to 23 hours
[12] = test system: hepatitis B virus; settings: clinical studies; cited from earlier work
[13] = Hepatitis B virus, HepG2, L515M/M552I, cell line MI4, mean ± SD of three to four experiments, read-out: EC50
[14] = Hepatitis B virus, HepG2, L515M/M552V, cell line MV5/B3, mean ± SD of three to four experiments, read-out: EC50
[15] = Hepatitis B virus, HepG2, M552I, cell line I2, mean ± SD of three to four experiments, read-out: EC50
[16] = Hepatitis B virus, HepG2, M552V
[17] = listed as 3′-valinyl ester hydrochloride of β-L-dC

Chain of hepatitis B virus deoxyribonucleic acid (DNA) polymerase (P03156 whole entry): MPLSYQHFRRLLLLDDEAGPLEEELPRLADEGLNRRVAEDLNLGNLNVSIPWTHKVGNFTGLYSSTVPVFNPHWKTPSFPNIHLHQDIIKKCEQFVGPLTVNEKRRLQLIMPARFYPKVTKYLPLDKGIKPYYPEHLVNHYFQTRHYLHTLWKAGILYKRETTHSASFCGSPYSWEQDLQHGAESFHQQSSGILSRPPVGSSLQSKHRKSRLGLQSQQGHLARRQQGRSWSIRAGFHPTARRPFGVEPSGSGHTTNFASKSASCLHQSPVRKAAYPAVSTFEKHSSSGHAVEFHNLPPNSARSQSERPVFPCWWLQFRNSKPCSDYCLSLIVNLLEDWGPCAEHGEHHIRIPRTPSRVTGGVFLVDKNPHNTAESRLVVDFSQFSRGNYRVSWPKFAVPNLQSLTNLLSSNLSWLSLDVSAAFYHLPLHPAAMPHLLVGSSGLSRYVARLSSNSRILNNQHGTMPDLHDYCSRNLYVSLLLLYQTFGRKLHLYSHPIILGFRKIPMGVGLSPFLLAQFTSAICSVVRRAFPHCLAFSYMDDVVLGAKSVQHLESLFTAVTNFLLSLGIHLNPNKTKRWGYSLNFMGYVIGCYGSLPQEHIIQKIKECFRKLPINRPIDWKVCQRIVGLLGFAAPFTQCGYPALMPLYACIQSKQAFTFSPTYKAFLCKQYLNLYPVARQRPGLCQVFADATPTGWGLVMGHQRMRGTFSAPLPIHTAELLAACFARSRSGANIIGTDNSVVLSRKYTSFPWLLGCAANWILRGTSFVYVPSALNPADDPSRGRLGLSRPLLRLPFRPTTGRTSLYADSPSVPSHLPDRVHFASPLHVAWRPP

## CC(=O)OC[C@@H]1O[C@H](n2ccc(N)nc2=O)C[C@H]1OC(C)=O [3′5′-diacetyl-L-dC, 3′,5′-Di-O-acetyl-2′-deoxy-β-L-cytidine]
[1]
  log P (octanol/water): −0.74

## Cc1cn([C@H]2C[C@H](O)[C@@H](CO)O2)c(=O)[nH]c1=O [Thd, D-thymidine]
[2]
  maximum initial velocity (Vmax) of phosphorylation: 1.26 nmol/min/mg protein

## Nc1ncnc2c1ncn2CCOCP(=O)(O)O [PMEA, 9-{2-(phosphonomethoxy)ethyl}adenine, reference compound]
[3]; [13]
  EC50: 0.00149 ± 0.0003 mM
[3]; L515M/M552I double mutant
  activity against the mutant, in words: retained significant activity
[3]; L515M/M552I, EC50 mutant divided by EC50 wild-type
  X Resist. (fold resistance): 3.6 ± 1.1
[4]; [14]
  EC50: 0.62 ± 0.3 µM
[4]; L515M/M552V double mutant
  activity against the mutant, in words: retained significant activity
[4]; L515M/M552V, EC50 mutant divided by EC50 wild-type
  X Resist. (fold resistance): 3.3 ± 2.9
[5]; [15]
  EC50: 0.0016 ± 0.00112 mM
[5]; M552I single mutant
  activity against the mutant, in words: retained significant activity
[5]; M552I, EC50 mutant divided by EC50 wild-type
  X Resist. (fold resistance): 4.6 ± 3.0
[6]; [16]
  EC50: 1020 ± 220 nM
[6]; M552V single mutant
  activity against the mutant, in words: retained significant activity
[6]; M552V, EC50 mutant divided by EC50 wild-type
  X Resist. (fold resistance): 3.8 ± 2.3
[7]; Hepatitis B virus, HepG2
  EC50: 330 ± 170 nM
[7]; EC50 mutant divided by EC50 wild-type
  X Resist. (fold resistance): 1

## Nc1ccn([C@@H]2CS[C@H](CO)O2)c(=O)n1 [lamivudine, (−)-enantiomer of BCH-189 (2′,3′-dideoxy-3′-thiacytidine), reference compound]
[3]; Hepatitis B virus, HepG2, L515M/M552I double mutant
  EC50: > 1 mM
[3]; [13]
  EC50: ≥ 1 mM
[4]; Hepatitis B virus, HepG2, L515M/M552V double mutant
  EC50: > 1000 µM
[4]; [14]
  EC50: ≥ 1000 µM
[5]; Hepatitis B virus, HepG2, M552I single mutant
  EC50: > 1 mM
[5]; [15]
  EC50: ≥ 1 mM
[6]; [16]
  EC50: 960 ± 360 nM
[7]; Hepatitis B virus, HepG2
  EC50: 50 ± 30 nM

## Nc1ccn([C@H]2C[C@H](O)[C@@H](CO)O2)c(=O)n1 [D-dC, D-Deoxycytidine]
[1]
  P (B/A): 0.039
  log P (octanol/water): −1.41
[2]
  maximum initial velocity (Vmax) of phosphorylation: 2.15 nmol/min/mg protein
[8]
  Solubility (g/L): 272 g/L (≈ 1200 mM)
  Solubility (mol/L): 1.03 mol/L (≈ 234 mg/mL)
[8]; 1st-3rd HPLC sample of the saturated (D-dC) or most concentrated available solution
  Concentration (mol/L) of single samples: 1.07 mol/L and 1.08 mol/L and 0.96 mol/L

## CC(C)[C@H](N)C(=O)O[C@@H]1C[C@@H](n2ccc(N)nc2=O)O[C@H]1CO.Cl [3′-val-L-dC, 3′-valinyl ester hydrochloride of β-L-dC]
[1]; listed as L-dC-3′-valine ester hydrochloride
  P (B/A): 0.0296 and 0.0293
[1]
  log P (octanol/water): −1.53
[8]
  Solubility (g/L): >408 g/L
[8]; [17]
  Solubility (g/L): > 408 g/L
  Solubility (mol/L): greater than 1.023 mol/L

## O=c1ccn([C@@H]2C[C@@H](O)[C@H](COP(=O)(O)OP(=O)(O)OP(=O)(O)O)O2)c(=O)[nH]1 [L-dU-TP, β-L-2′-deoxyuridine 5′-triphosphate]
[9]
  IC50: 5.26 µM

## CC(C)[C@H](N)C(=O)OC[C@@H]1O[C@H](n2ccc(N)nc2=O)C[C@H]1O [5′-val-L-dC, 5′-L-valine ester of 2′-deoxy-β-L-cytidine hydrochloride]
[10]
  P′ (B/A′): 1.54 × 10^−3 and 2.04 × 10^−3
[11]
  stability in words: fully stable

## Nc1ccn([C@@H]2C[C@@H](O)[C@H](CO)O2)c(=O)n1 [LdC-HCl]
[3]; L515M/M552I, cell line MI4, mean ± SD of three to four experiments, read-out: EC50
  EC50: ≥ 1 mM
[4]; L515M/M552V, cell line MV5/B3, mean ± SD of three to four experiments, read-out: EC50
  EC50: 777 ± 99 µM
[5]; M552I, cell line I2, mean ± SD of three to four experiments, read-out: EC50
  EC50: ≥ 1 mM
[6]; M552V
  EC50: 360 ± 130 nM
[7]
  EC50: 180 ± 90 nM

## Interferon alpha-2b
[12]
  patients with no evidence of the hepatitis B virus in their blood over time: 45%
